Test results: ChEMBL document CHEMBL4152362, “Discovery of DS-6930, a potent selective PPARγ modulator. Part II: Lead optimization” (Bioorg Med Chem, 2018)
pEC50: −log10 of the molar value. ≈ marks a conversion by molar mass, not a printed value. Calls of active or inactive are those of the source. No cut-off for these calls is given here.

Legend:
[1] = target: T1, Peroxisome proliferator-activated receptor gamma (Homo sapiens, UniProt P37231); experiment: Agonist activity at recombinant human GAL4-DBD fused PPARgamma LBD expressed in COS7 cells after 24 hrs by luciferase reporter gene assay; format: cell-based
T1 sequence (P37231 whole entry): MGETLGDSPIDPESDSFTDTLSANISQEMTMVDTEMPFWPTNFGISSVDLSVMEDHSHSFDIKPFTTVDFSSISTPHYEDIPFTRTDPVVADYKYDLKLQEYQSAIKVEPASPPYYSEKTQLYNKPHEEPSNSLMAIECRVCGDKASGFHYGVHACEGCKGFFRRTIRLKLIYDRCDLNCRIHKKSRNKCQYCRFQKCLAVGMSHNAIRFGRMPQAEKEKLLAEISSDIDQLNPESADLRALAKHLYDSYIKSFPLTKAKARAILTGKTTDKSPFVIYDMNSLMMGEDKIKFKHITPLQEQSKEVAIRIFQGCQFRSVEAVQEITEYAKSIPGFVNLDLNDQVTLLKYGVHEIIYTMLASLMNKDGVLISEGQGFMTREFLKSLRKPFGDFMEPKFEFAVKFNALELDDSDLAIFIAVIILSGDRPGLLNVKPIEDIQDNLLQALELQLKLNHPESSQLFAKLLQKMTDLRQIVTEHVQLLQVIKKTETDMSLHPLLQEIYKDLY

[2] = target: T2, Peroxisome proliferator-activated receptor gamma (Homo sapiens) (UniProt P37231); experiment: Agonist activity at recombinant human GAL4-DBD fused PPARgamma LBD expressed in COS7 cells at 10 uM after 24 hrs by luciferase reporter gene assay relative to rosiglitazone; format: cell-based
T2 sequence (whole entry): T1 sequence (P37231 whole entry)

[3] = target: T3, Peroxisome proliferator-activated receptor alpha (Homo sapiens, UniProt Q07869); experiment: Agonist activity at recombinant human GAL4-DBD fused PPARalpha LBD expressed in COS7 cells after 24 hrs by luciferase reporter gene assay; format: cell-based
T3 sequence (Q07869 whole entry): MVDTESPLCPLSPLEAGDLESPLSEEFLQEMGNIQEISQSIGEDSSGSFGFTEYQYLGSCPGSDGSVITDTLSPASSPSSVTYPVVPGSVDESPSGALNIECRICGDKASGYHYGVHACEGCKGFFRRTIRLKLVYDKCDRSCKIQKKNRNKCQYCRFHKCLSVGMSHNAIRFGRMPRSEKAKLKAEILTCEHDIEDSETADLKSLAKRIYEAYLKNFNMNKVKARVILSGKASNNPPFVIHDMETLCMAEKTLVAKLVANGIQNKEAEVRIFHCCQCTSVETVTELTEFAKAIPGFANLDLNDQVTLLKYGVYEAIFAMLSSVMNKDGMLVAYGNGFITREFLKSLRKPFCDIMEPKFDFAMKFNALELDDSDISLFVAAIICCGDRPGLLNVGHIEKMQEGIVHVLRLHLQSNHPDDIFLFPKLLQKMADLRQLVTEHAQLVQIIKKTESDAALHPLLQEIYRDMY

[4] = target: T4, Peroxisome proliferator-activated receptor alpha (Homo sapiens) (UniProt Q07869); experiment: Agonist activity at recombinant human GAL4-DBD fused PPARalpha LBD expressed in COS7 cells at 10 uM after 24 hrs by luciferase reporter gene assay relative to 2-(4-tert-Butylphenoxy)-3-[4-[2-[(4-pyridin-2-ylbenzoyl)amino]ethoxy] phenyl]propionic acid; format: cell-based
T4 sequence (whole entry): T3 sequence (Q07869 whole entry)

[5] = 1-octanol/PBS distribution co-efficient, log D of the compound at […] at pH 7.4 after 30 mins by HPLC-MS/MS method; format: physicochemical
[6] = Aqueous thermodynamic solubility of the compound in pH 6.8 solution up to 4 hrs by HPLC-UV analysis; format: physicochemical; details: read-out: Therm_solubility
[7] = Apparent permeability of the compound after 4 hrs by PAMPA; format: ADME
[8] = Metabolic stability in human liver microsomes after 0.5 hrs; format: ADME, microsome; details: read-out: Stability
[9] = target: T5, Peroxisome proliferator-activated receptor delta (Homo sapiens) (UniProt Q03181); experiment: Agonist activity at PPARdelta (unknown origin) at 10 uM
T5 sequence (whole entry): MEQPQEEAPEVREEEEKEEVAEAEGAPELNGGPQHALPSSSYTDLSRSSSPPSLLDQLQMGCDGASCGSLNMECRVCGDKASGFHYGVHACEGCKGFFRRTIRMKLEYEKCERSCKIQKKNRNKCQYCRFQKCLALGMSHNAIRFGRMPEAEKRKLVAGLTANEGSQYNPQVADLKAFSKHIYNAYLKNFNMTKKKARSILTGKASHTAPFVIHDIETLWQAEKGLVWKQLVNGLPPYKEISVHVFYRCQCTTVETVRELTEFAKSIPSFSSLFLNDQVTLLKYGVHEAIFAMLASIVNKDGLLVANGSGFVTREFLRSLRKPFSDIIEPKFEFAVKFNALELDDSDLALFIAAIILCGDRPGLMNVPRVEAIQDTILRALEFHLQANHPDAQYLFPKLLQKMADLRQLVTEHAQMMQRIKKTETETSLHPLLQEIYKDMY

| SMILES | pEC50 [1] | Emax [2] | pEC50 [3] | Emax [4] | logD at 0.5 h [5] | solubility thermodynamic at 4 h [6] | Papp at 4 h [7] | remaining at 0.5 h [8] | Activity [9] |
| --- | --- | --- | --- | --- | --- | --- | --- | --- | --- |
| Cn1c(COc2cccc(C(=O)O)c2)nc2cnc(Oc3ccc4c(c3)OCC4)cc21 | 6.47 | 59% | < 5.00 | 4% | 0.6 | 79 µg/mL (≈ 189 µM) | 3.6 ×10⁻⁶ cm/s | 100% | inactive |
| Cc1ccc(Oc2ccc3nc(COc4cccc(C(=O)O)c4)n(C)c3n2)cc1F | 7.30 | 80% | – | 56% | 2.1 | 5.2 µg/mL (≈ 12.8 µM) | 14.8 ×10⁻⁶ cm/s | 96% | inactive |
| Cc1ccc(C)c(Oc2ccc3nc(COc4cccc(C(=O)O)c4)n(C)c3c2)n1 | 6.14 | 117% | < 5.00 | 7% | 1.4 | 85 µg/mL (≈ 211 µM) | 11 ×10⁻⁶ cm/s | – | – |
| Cn1c(COc2cccc(C(=O)O)c2)nc2ccc(Oc3ncccc3F)cc21 | 6.55 | 80% | < 5.00 | 3% | 0.6 | 7.1 µg/mL (≈ 18 µM) | 3.9 ×10⁻⁶ cm/s | 100% | – |
| Cn1c(COc2cccc(C(=O)O)c2)nc2ccc(Oc3cc(Cl)ccn3)cc21 | 6.21 | 93% | < 5.00 | 11% | 1.2 | 11 µg/mL (≈ 26.8 µM) | 10.3 ×10⁻⁶ cm/s | – | – |
| Cn1c(COc2cccc(C(=O)O)c2)nc2ccc(Oc3ccc(F)cc3)nc21 | 5.97 | 62% | – | 55% | 1.5 | 11 µg/mL (≈ 28 µM) | 8.6 ×10⁻⁶ cm/s | 78% | inactive |
| Cc1cnc(Oc2ccc3nc(COc4cccc(C(=O)O)c4)n(C)c3c2)c(F)c1 | – | 74% | – | 4% | – | – | – | – | – |
| Cc1cccnc1Oc1ccc2nc(COc3cccc(C(=O)O)c3)n(C)c2c1 | 6.45 | 83% | < 5.00 | 8% | 0.9 | 37 µg/mL (≈ 95 µM) | 6 ×10⁻⁶ cm/s | 100% | – |
| Cn1c(COc2cccc(C(=O)O)c2)nc2ccc(Oc3ccc(F)cn3)cc21 | 6.09 | 87% | < 5.00 | 5% | 0.6 | 79 µg/mL (≈ 201 µM) | 4.7 ×10⁻⁶ cm/s | – | – |
| Cc1cc(F)cnc1Oc1ccc2nc(COc3cccc(C(=O)O)c3)n(C)c2c1 | – | 100% | < 5.00 | 2% | 1.1 | 14 µg/mL (≈ 34.4 µM) | 8.3 ×10⁻⁶ cm/s | 93% | – |
| COC(=O)c1cccc(OCc2nc3ccc(Oc4ccccc4)nc3n2C)c1 | 4.91 | 65% | – | – | – | – | – | – | – |
| Cc1ccnc(Oc2ccc3nc(COc4cccc(C(=O)O)c4)n(C)c3c2)c1 | 6.34 | 41% | < 5.00 | 2% | 0.8 | 33 µg/mL (≈ 84.7 µM) | 3.5 ×10⁻⁶ cm/s | – | – |
| Cn1c(COc2cccc(C(=O)O)c2)nc2ccc(Oc3cccc(Cl)n3)cc21 | 6.13 | 67% | < 5.00 | 13% | 1.2 | 7.7 µg/mL (≈ 18.8 µM) | 7.6 ×10⁻⁶ cm/s | 98% | – |
| Cn1c(COc2cccc(C(=O)O)c2)nc2ccc(Oc3ncccc3Cl)cc21 | 6.70 | 93% | < 5.00 | 6% | 1.1 | 15 µg/mL (≈ 36.6 µM) | 8.1 ×10⁻⁶ cm/s | 99% | – |
| Cl.Cl.Cn1c(COc2cccc(C(=O)O)c2)nc2ccc(Oc3ccccc3)nc21 | – | 61% | – | – | 1.2 | 160 µg/mL | – | 100% | inactive |
| Cc1ccc(Oc2ccc3nc(COc4cccc(C(=O)O)c4)n(C)c3c2)nc1 | 6.89 | 42% | < 5.00 | 4% | 0.9 | 31 µg/mL (≈ 79.6 µM) | 4.8 ×10⁻⁶ cm/s | 94% | – |
| Cc1ccc(Oc2ccc3nc(COc4cccc(C(=O)O)c4)n(C)c3c2)nc1C | 6.75 | 81% | < 5.00 | 8% | 1.3 | 190 µg/mL (≈ 471 µM) | 7.7 ×10⁻⁶ cm/s | 100% | – |
| Cc1cccc(Oc2ccc3nc(COc4cccc(C(=O)O)c4)n(C)c3c2)n1 | 5.72 | 78% | < 5.00 | 1% | 0.8 | 92 µg/mL (≈ 236 µM) | 2.7 ×10⁻⁶ cm/s | 100% | – |
| Cn1c(COc2cccc(C(=O)O)c2)nc2ccc(Oc3ccccn3)cc21 | 5.95 | 74% | < 5.00 | 1% | 0.4 | 62 µg/mL (≈ 165 µM) | 2.2 ×10⁻⁶ cm/s | 100% | – |
